According to patent publication US9963442B2, “Pyridones as herbicides” (E I DU PONT DE NEMOURS AND COMPANY, priority 2014, dated 2018):

Experiments:
Assay type in all cases: in vivo
Settings in all cases: scale 0 to 100, 0 is no effect, 100 is complete control
[1] = tested on: Italian ryegrass (Lolium multiflorum); assay: Test C preemergence
Excerpt: (§1) Seeds of plant species selected from blackgrass (Alopecurus myosuroides), Italian ryegrass (Lolium multiflorum), winter wheat (Triticum aestivum), galium (catchweed bedstraw, Galium aparine), corn (Zea mays), large (Lg) crabgrass (Digitaria sanguinalis), giant foxtail (Setaria faberii), johnsongrass (Sorghum halepense), lambsquarters (Chenopodium album), morningglory (Ipomoea coccinea), yellow nutsedge (Cyperus esculentus), pigweed (Amaranthus retroflexus), ragweed (common ragweed, Ambrosia elatior), soybean (Glycine max), barnyardgrass (Echinochloa crus-galli), oilseed rape (Brassica napus), waterhemp (common waterhemp, Amaranthus rudis), and velvetleaf (Abutilon theophrasti) were planted into a blend of loam soil and sand and treated preemergence with test chemicals formulated in a non-phytotoxic solvent mixture which included a surfactant. At the same time, plants selected from these crop and weed species and also chickweed (common chickweed, Stellaria media), kochia (Kochia scoparia), and wild oat (Avena fatua), were planted in pots containing Sunshine Redi-Earth® planting medium comprising spaghnum peat moss, vermiculite, starter nutrients and dolomitic limestone and treated with postemergence applications of test chemicals formulated in the same manner. Plants ranged in height from 2 to 18 cm (1- to 4-leaf stage) for postemergence treatments. Treated plants and controls were maintained in a greenhouse for 13 to 15 days, after which time all species were compared to controls and visually evaluated. Plant response ratings, summarized in Table C, are based on a scale of 0 to 100 where 0 is no effect and 100 is complete control. A dash (-) response means no test result.

[2] = tested on: barnyardgrass (Echinochloa crus-galli); assay: Test C preemergence
Excerpt: as §1

corn (Zea mays) [3] = assay: Test C preemergence
Excerpt: as §1

[4] = tested on: giant foxtail (Setaria faberii); assay: Test C preemergence
Excerpt: as §1

[5] = tested on: morningglory (Ipomoea coccinea); assay: Test C preemergence
Excerpt: as §1

[6] = tested on: pigweed (Amaranthus retroflexus); assay: Test C preemergence
Excerpt: as §1

[7] = tested on: yellow nutsedge (Cyperus esculentus); assay: Test C preemergence
Excerpt: as §1

[8] = tested on: Italian ryegrass (Lolium multiflorum); assay: Test C postemergence
In short: (§2)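 Preemergence: seeds sown in loam–sand blend and sprayed with compound in non-phytotoxic solvent mixture with surfactant. Postemergence: plants in peat-based potting medium treated at 2–18 cm (1- to 4-leaf stage). Greenhouse 13–15 days; visual injury vs untreated controls, 0 (no effect) to 100 (complete control).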

[9] = tested on: barnyardgrass (Echinochloa crus-galli); assay: Test C postemergence
In short: as §2

[10] = tested on: blackgrass (Alopecurus myosuroides); assay: Test C postemergence
In short: as §2

[11] = tested on: chickweed (common chickweed, Stellaria media); assay: Test C postemergence
In short: as §2

corn (Zea mays) [12] = assay: Test C postemergence
In short: as §2

kochia (Kochia scoparia) = assay: Test C postemergence
In short: as §2

[13] = tested on: lambsquarters (Chenopodium album); assay: Test C postemergence
In short: as §2

[14] = tested on: large (Lg) crabgrass (Digitaria sanguinalis); assay: Test C postemergence
In short: as §2

[15] = tested on: morningglory (Ipomoea coccinea); assay: Test C postemergence
In short: as §2

[16] = tested on: pigweed (Amaranthus retroflexus); assay: Test C postemergence
In short: as §2

soybean (Glycine max) = assay: Test C postemergence
In short: as §2

[17] = tested on: velvetleaf (Abutilon theophrasti); assay: Test C postemergence
In short: as §2

[18] = tested on: waterhemp (common waterhemp, Amaranthus rudis); assay: Test C postemergence
In short: as §2

wild oat (Avena fatua) = assay: Test C postemergence
In short: as §2

[19] = tested on: winter wheat (Triticum aestivum); assay: Test C postemergence
In short: as §2

[20] = tested on: yellow nutsedge (Cyperus esculentus); assay: Test C postemergence
In short: as §2

## O=c1cccc(Oc2ncc(Cl)cn2)n1-c1ccc(C(F)(F)F)cn1 [Compound 7]
[1]; 16 g ai/ha
  Plant response rating, Ryegrass, Italian: 0
[1]; 31 g ai/ha
  Plant response rating, Ryegrass, Italian: 0
[1]; 62 g ai/ha
  Plant response rating, Ryegrass, Italian: 10
[1]; 125 g ai/ha
  Plant response rating, Ryegrass, Italian: 30
[2]; 16 g ai/ha
  Plant response rating, Barnyardgrass: 5
[2]; 31 g ai/ha
  Plant response rating, Barnyardgrass: 10
[2]; 62 g ai/ha
  Plant response rating, Barnyardgrass: 35
[2]; 125 g ai/ha
  Plant response rating, Barnyardgrass: 75
Corn (Zea mays) [3]; 16 g ai/ha
  Plant response rating, Corn: 0
Corn (Zea mays) [3]; 31 g ai/ha
  Plant response rating, Corn: 0
Corn (Zea mays) [3]; 62 g ai/ha
  Plant response rating, Corn: 10
Corn (Zea mays) [3]; 125 g ai/ha
  Plant response rating, Corn: 10
[4]; 16 g ai/ha
  Plant response rating, Foxtail, Giant: 25
[4]; 31 g ai/ha
  Plant response rating, Foxtail, Giant: 60
[4]; 62 g ai/ha
  Plant response rating, Foxtail, Giant: 85
[4]; 125 g ai/ha
  Plant response rating, Foxtail, Giant: 98
[5]; 16 g ai/ha
  Plant response rating, Morningglory: 0
[5]; 31 g ai/ha
  Plant response rating, Morningglory: 0
[5]; 62 g ai/ha
  Plant response rating, Morningglory: 10
[5]; 125 g ai/ha
  Plant response rating, Morningglory: 25
[6]; 16 g ai/ha
  Plant response rating, Pigweed: 20
[6]; 31 g ai/ha
  Plant response rating, Pigweed: 100
[6]; 62 g ai/ha
  Plant response rating, Pigweed: 100
[6]; 125 g ai/ha
  Plant response rating, Pigweed: 100
[7]; 16 g ai/ha
  Plant response rating, Nutsedge, Yellow: 0
[7]; 31 g ai/ha
  Plant response rating, Nutsedge, Yellow: 0
[7]; 62 g ai/ha
  Plant response rating, Nutsedge, Yellow: 0
[7]; 125 g ai/ha
  Plant response rating, Nutsedge, Yellow: 15
[8]; 16 g ai/ha
  Plant response rating, Ryegrass, Italian: 0
[8]; 31 g ai/ha
  Plant response rating, Ryegrass, Italian: 5
[8]; 62 g ai/ha
  Plant response rating, Ryegrass, Italian: 5
[8]; 125 g ai/ha
  Plant response rating, Ryegrass, Italian: 10
[9]; 16 g ai/ha
  Plant response rating, Barnyardgrass: 5
[9]; 31 g ai/ha
  Plant response rating, Barnyardgrass: 5
[9]; 62 g ai/ha
  Plant response rating, Barnyardgrass: 5
[9]; 125 g ai/ha
  Plant response rating, Barnyardgrass: 10
[10]; 16 g ai/ha
  Plant response rating, Blackgrass: 5
[10]; 31 g ai/ha
  Plant response rating, Blackgrass: 5
[10]; 62 g ai/ha
  Plant response rating, Blackgrass: 10
[10]; 125 g ai/ha
  Plant response rating, Blackgrass: 20
[11]; 16 g ai/ha
  Plant response rating, Chickweed: 0
[11]; 31 g ai/ha
  Plant response rating, Chickweed: 20
[11]; 62 g ai/ha
  Plant response rating, Chickweed: 35
[11]; 125 g ai/ha
  Plant response rating, Chickweed: 55
Corn (Zea mays) [12]; 16 g ai/ha
  Plant response rating, Corn: 10
Corn (Zea mays) [12]; 31 g ai/ha
  Plant response rating, Corn: 10
Corn (Zea mays) [12]; 62 g ai/ha
  Plant response rating, Corn: 20
Corn (Zea mays) [12]; 125 g ai/ha
  Plant response rating, Corn: 15
Kochia (Kochia scoparia); 16 g ai/ha
  Plant response rating, Kochia: 10
Kochia (Kochia scoparia); 31 g ai/ha
  Plant response rating, Kochia: 50
Kochia (Kochia scoparia); 62 g ai/ha
  Plant response rating, Kochia: 70
Kochia (Kochia scoparia); 125 g ai/ha
  Plant response rating, Kochia: 85
[13]; 16 g ai/ha
  Plant response rating, Lambsquarters: 25
[13]; 31 g ai/ha
  Plant response rating, Lambsquarters: 65
[13]; 62 g ai/ha
  Plant response rating, Lambsquarters: 65
[13]; 125 g ai/ha
  Plant response rating, Lambsquarters: 75
[14]; 16 g ai/ha
  Plant response rating, Crabgrass, Large: 10
[14]; 31 g ai/ha
  Plant response rating, Crabgrass, Large: 10
[14]; 62 g ai/ha
  Plant response rating, Crabgrass, Large: 15
[14]; 125 g ai/ha
  Plant response rating, Crabgrass, Large: 15
[15]; 16 g ai/ha
  Plant response rating, Morningglory: 20
[15]; 31 g ai/ha
  Plant response rating, Morningglory: 35
[15]; 62 g ai/ha
  Plant response rating, Morningglory: 40
[15]; 125 g ai/ha
  Plant response rating, Morningglory: 45
[16]; 16 g ai/ha
  Plant response rating, Pigweed: 70
[16]; 31 g ai/ha
  Plant response rating, Pigweed: 65
[16]; 62 g ai/ha
  Plant response rating, Pigweed: 85
[16]; 125 g ai/ha
  Plant response rating, Pigweed: 80
Soybean (Glycine max); 16 g ai/ha
  Plant response rating, Soybean: 50
Soybean (Glycine max); 31 g ai/ha
  Plant response rating, Soybean: 40
Soybean (Glycine max); 62 g ai/ha
  Plant response rating, Soybean: 50
Soybean (Glycine max); 125 g ai/ha
  Plant response rating, Soybean: 55
[17]; 16 g ai/ha
  Plant response rating, Velvetleaf: 25
[17]; 31 g ai/ha
  Plant response rating, Velvetleaf: 35
[17]; 62 g ai/ha
  Plant response rating, Velvetleaf: 40
[17]; 125 g ai/ha
  Plant response rating, Velvetleaf: 65
[18]; 16 g ai/ha
  Plant response rating, Waterhemp: 60
[18]; 31 g ai/ha
  Plant response rating, Waterhemp: 70
[18]; 62 g ai/ha
  Plant response rating, Waterhemp: 85
[18]; 125 g ai/ha
  Plant response rating, Waterhemp: 85
Wild oat (Avena fatua); 16 g ai/ha
  Plant response rating, Oat, Wild: 0
Wild oat (Avena fatua); 31 g ai/ha
  Plant response rating, Oat, Wild: 0
Wild oat (Avena fatua); 62 g ai/ha
  Plant response rating, Oat, Wild: 5
Wild oat (Avena fatua); 125 g ai/ha
  Plant response rating, Oat, Wild: 5
[19]; 16 g ai/ha
  Plant response rating, Wheat: 0
[19]; 31 g ai/ha
  Plant response rating, Wheat: 0
[19]; 62 g ai/ha
  Plant response rating, Wheat: 0
[19]; 125 g ai/ha
  Plant response rating, Wheat: 0
[20]; 16 g ai/ha
  Plant response rating, Nutsedge, Yellow: 0
[20]; 31 g ai/ha
  Plant response rating, Nutsedge, Yellow: 5
[20]; 62 g ai/ha
  Plant response rating, Nutsedge, Yellow: 5
[20]; 125 g ai/ha
  Plant response rating, Nutsedge, Yellow: 10
